The target of one test is T1, HDAC1 enzyme (Homo sapiens, UniProt Q13547).
T1 construct: Amplification of human HDAC1 coding region from this cDNA library was cloned separately into the baculovirus expression pDEST20 vector; made in house; host or cells: SF9 insect cells, pDEST20-HDAC1 baculovirus
Description: In vitro HDAC assay for determination of IC50 values (BIOMOL fluorescent-based HDAC activity assay). The class given is biochemical. The gist of the method: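 Recombinant GST-HDAC1, cloned from SW620 cDNA and expressed in Sf9 cells, tested in a fluorogenic Fluor de Lys deacetylase assay. Developer was added for 10 min and fluorescence read at 360/460 nm. IC50 came from concentration series.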

The next test concerns Colo205 cells. Description: Cell-based proliferation assay for GI50 (CyQUANT), Colo205. As to conditions: Homo sapiens, COLO 205, 96 h treatment, read-out: Cellular or Growth Inhibition Activity in Colo205 cells, GI50. The gist of the method:
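Cells were seeded at 1000 (PC3), 5000 (Colo205), 6000 (HCT116) or 4000 (HEP3B) per well and left 24 h at 37° C. Compound treatment lasted 96 h. Growth was read by CyQUANT, and GI50 (50% growth inhibition) came from dose-response curves.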

Another test has as its system A2780. The experiment in a line: Cell-based proliferation assay for GI50 (CyQUANT), A2780. The note with it: Homo sapiens; A2780, 96 h treatment; read-out: Cellular or Growth Inhibition Activity, GI50, A2780. The procedure: Human colon cancer cell lines (Colo205, HCT116), Ovarian cancer cell line (A2780), Hepatoma cell line (HEP3B), Prostate cancer cell line (PC3) were obtained from ATCC or ECACC. Colo205 cells were cultivated in RPMI 1640 containing 2 mM L-Glutamine, 5% FBS, 1.0 mM Na Pyruvate, 1 U/ml of penicillin and 1 μg of streptomycin. HCT116 cells were cultivated in McCoy's containing RPMI 1640 containing 2 mM L-Glutamine, 5% FBS, 1 U/ml of penicillin and 1 μg of streptomycin. A2780 cells were cultivated in RPMI 1640 containing 2 mM L-Glutamine, 5% FBS, 1 U/ml of penicillin and 1 μg of streptomycin. HEP3B cells were cultivated in EMEM containing 2 mM L-glutamine, 5% FBS, 1% non essential amino acid, 1 mM Na Pyruvate, 1 U/ml of penicillin and 1 μg of streptomycin. PC3 cells were cultivated in F12K, 2 mM L-glutamine, 5% FBS, 1 U/ml of penicillin and 1 μg of streptomycin. PC3, Colo205, and HCT116 cells were seeded in 96-wells plate at 1000, 5000 and 6000 cells per well respectively. A2780 and HEP3B cells were seeded in 96-wells plate at 4000 cells per well respectively. The plates were incubated at 37° C., 5% CO2, for 24 h. Cells were treated with compounds at various concentrations for 96 h. Cell growth was then monitored using CyQUANT® cell proliferation assay (Invitrogen Pte Ltd). Dose response curves were plotted to determine GI50 values for the compounds using XL-fit (ID Business Solution, Emeryville, Calif.). GI50 is defined as the concentration of compound required for 50% inhibition of cell growth.

The values that follow come from patent US8143282B2, “Heterocyclic compounds” (S*BIO Pte Ltd., priority 2005, dated 2012).

Each structure is given as a SMILES string. Bounds are passed on as bounds.

T1 sequence (Q13547 whole entry): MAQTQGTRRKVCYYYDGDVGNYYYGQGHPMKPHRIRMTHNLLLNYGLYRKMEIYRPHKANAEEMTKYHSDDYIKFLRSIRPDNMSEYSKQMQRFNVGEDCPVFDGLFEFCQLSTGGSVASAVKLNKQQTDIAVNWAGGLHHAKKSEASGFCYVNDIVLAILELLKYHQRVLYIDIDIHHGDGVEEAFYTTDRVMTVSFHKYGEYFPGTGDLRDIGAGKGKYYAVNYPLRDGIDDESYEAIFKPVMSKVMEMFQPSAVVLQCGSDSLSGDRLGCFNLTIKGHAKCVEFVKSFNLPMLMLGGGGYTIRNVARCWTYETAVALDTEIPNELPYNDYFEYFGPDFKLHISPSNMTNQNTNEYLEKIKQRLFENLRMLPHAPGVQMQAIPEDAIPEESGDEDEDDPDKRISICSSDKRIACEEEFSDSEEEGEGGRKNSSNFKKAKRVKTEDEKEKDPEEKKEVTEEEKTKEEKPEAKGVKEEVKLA

`CCCc1nc2cc(/C=C/C(=O)NO)ccc2n1CCNCCC(C)(C)C` [Compound 130, 3-{1-[2-(3,3-Dimethyl-butylamino)-ethyl]-2-propyl-1H-benzoimidazol-5-yl}-N-hydroxy-acrylamide] returned a half-inhibitory concentration (IC50) against HDAC1 enzyme of 36 nM. Further, the GI50 in the test with Colo205 cells was 150 nM; in the test with A2780, below 500 nM.

What is called IC50 is the midpoint of a concentration-inhibition curve. Broadly, the GI50 is the concentration giving 50% growth inhibition.
